Data on six compounds can be found in ChEMBL document CHEMBL5055686, “Discovery of AL-GDa62 as a Potential Synthetic Lethal Lead for the Treatment of Gastric Cancer” (J Med Chem, 2021).

The subject of experiment [1] is MCF-10A. The experiment is described as follows: Antitumor activity against human spontaneously immortalized wild type MCF-10A cells assessed as cell numbers measured after 48 hrs. It is filed as functional, cell-based. The following applies: Homo sapiens, MCF-10A, 48 h; read-out: EC50.
In experiment [2] the test system is MCF-10A. In words: Antitumor activity against human spontaneously immortalized CDH-/- MCF10A cells assessed as cell numbers measured after 48 hrs. Format: functional, cell-based. The following applies: Homo sapiens, MCF-10A, 48 h; read-out: EC50.
The nature of experiment [3]: Ratio of EC50 for antitumor activity against human spontaneously immortalized wild type MCF10A cells assessed as cell numbers measured after 48 hrs to antitumor activity against human spontaneously immortalized CDH-/- MCF10A cells assessed as cell numbers measured after 48 hrs. It is filed as functional, MCF-10A.
Experiment [4] concerns MCF-10A. In words: Antitumor activity against human spontaneously immortalized CDH-/- MCF10A cells assessed as cell numbers at 3.13 uM measured after 48 hrs. Format: functional.

As a reminder, the EC50 is the concentration that produces a half-maximal response. For orientation: inhibition means the share of the control response that was lost under treatment. `COc1ccc2c(NCc3ccc(F)cc3)cc(C)nc2c1`: the EC50 stood at 15.9 µM in the experiment with MCF-10A [1] and 10.2 µM in the experiment with MCF-10A [2]. Also, in experiment [3], the “Ratio EC50” value was determined as 1.6. Besides, in the experiment with MCF-10A [4], the inhibition at 3.13 µM is 10%.

As to `COc1ccc2nc(CO)cc(NCc3ccc(F)cc3)c2c1`, the EC50 in the experiment with MCF-10A [1] turned out to be 31 µM; in the experiment with MCF-10A [2] it was 20.8 µM. Also, the “Ratio EC50” value in experiment [3] came out at 1.5. The inhibition at 3.13 µM with MCF-10A [4] amounted to 10%.

For the compound `Cc1cc(NC2CCN(C)CC2)c2cc(OCCCN3CCCC3)ccc2n1`, the EC50 with MCF-10A [1] turned out to be 11.4 µM; with MCF-10A [2], 13.2 µM. In experiment [3], the “Ratio EC50” value stood at 0.9.

As to `COc1ccc2nc(C)cc(NCc3ccc(F)c(F)c3)c2c1`, the EC50 worked out at 12 µM in the experiment on MCF-10A [1] and 9.1 µM in the experiment on MCF-10A [2]. The “Ratio EC50” value in experiment [3] is reported as 1.3.

Consider `COc1ccc2nc(C)cc(NCc3ccc(F)cc3)c2c1`, for which the EC50 in the experiment with MCF-10A [1] is 12.2 µM; in the experiment on MCF-10A [2], 8.2 µM. Also, the “Ratio EC50” value in experiment [3] was determined as 1.5.

Consider `COc1ccc2nc(C)cc(NCc3cccc(-c4ccccc4)c3)c2c1`, for which the figures for the EC50 with MCF-10A [1] and in the experiment on MCF-10A [2] were 3.1 µM and 2.8 µM, respectively. For the same compound, the “Ratio EC50” value in experiment [3] was 1.1.
